Assays:
[1] = biological target: G2019S LRRK2 (Homo sapiens, UniProt Q5S007, G2019S); test: TR-FRET-based kinase activity assay, G2019S LRRK2; format: biochemical; details: read-out: IC50, G2019S LRRK2 activity, ATP 100 μM
[2] = Pharmacokinetics studies; details: in vivo
[3] = tested on: LRRK2 G2019S-transfected human cortical neurons; test: Neurite morphology assay in primary human cortical neurons; details: for EC50: read-out: EC50, attenuation of G2019S LRRK2-induced human neuronal injury
[4] = biological target: recombinant human wild type LRRK2 (Homo sapiens, UniProt Q5S007); test: TR-FRET-based kinase activity assay, wild type LRRK2; format: biochemical; details: read-out: IC50, human wild type LRRK2 activity, ATP 100 μM
Sequence of recombinant human wild type LRRK2 (Q5S007 whole entry): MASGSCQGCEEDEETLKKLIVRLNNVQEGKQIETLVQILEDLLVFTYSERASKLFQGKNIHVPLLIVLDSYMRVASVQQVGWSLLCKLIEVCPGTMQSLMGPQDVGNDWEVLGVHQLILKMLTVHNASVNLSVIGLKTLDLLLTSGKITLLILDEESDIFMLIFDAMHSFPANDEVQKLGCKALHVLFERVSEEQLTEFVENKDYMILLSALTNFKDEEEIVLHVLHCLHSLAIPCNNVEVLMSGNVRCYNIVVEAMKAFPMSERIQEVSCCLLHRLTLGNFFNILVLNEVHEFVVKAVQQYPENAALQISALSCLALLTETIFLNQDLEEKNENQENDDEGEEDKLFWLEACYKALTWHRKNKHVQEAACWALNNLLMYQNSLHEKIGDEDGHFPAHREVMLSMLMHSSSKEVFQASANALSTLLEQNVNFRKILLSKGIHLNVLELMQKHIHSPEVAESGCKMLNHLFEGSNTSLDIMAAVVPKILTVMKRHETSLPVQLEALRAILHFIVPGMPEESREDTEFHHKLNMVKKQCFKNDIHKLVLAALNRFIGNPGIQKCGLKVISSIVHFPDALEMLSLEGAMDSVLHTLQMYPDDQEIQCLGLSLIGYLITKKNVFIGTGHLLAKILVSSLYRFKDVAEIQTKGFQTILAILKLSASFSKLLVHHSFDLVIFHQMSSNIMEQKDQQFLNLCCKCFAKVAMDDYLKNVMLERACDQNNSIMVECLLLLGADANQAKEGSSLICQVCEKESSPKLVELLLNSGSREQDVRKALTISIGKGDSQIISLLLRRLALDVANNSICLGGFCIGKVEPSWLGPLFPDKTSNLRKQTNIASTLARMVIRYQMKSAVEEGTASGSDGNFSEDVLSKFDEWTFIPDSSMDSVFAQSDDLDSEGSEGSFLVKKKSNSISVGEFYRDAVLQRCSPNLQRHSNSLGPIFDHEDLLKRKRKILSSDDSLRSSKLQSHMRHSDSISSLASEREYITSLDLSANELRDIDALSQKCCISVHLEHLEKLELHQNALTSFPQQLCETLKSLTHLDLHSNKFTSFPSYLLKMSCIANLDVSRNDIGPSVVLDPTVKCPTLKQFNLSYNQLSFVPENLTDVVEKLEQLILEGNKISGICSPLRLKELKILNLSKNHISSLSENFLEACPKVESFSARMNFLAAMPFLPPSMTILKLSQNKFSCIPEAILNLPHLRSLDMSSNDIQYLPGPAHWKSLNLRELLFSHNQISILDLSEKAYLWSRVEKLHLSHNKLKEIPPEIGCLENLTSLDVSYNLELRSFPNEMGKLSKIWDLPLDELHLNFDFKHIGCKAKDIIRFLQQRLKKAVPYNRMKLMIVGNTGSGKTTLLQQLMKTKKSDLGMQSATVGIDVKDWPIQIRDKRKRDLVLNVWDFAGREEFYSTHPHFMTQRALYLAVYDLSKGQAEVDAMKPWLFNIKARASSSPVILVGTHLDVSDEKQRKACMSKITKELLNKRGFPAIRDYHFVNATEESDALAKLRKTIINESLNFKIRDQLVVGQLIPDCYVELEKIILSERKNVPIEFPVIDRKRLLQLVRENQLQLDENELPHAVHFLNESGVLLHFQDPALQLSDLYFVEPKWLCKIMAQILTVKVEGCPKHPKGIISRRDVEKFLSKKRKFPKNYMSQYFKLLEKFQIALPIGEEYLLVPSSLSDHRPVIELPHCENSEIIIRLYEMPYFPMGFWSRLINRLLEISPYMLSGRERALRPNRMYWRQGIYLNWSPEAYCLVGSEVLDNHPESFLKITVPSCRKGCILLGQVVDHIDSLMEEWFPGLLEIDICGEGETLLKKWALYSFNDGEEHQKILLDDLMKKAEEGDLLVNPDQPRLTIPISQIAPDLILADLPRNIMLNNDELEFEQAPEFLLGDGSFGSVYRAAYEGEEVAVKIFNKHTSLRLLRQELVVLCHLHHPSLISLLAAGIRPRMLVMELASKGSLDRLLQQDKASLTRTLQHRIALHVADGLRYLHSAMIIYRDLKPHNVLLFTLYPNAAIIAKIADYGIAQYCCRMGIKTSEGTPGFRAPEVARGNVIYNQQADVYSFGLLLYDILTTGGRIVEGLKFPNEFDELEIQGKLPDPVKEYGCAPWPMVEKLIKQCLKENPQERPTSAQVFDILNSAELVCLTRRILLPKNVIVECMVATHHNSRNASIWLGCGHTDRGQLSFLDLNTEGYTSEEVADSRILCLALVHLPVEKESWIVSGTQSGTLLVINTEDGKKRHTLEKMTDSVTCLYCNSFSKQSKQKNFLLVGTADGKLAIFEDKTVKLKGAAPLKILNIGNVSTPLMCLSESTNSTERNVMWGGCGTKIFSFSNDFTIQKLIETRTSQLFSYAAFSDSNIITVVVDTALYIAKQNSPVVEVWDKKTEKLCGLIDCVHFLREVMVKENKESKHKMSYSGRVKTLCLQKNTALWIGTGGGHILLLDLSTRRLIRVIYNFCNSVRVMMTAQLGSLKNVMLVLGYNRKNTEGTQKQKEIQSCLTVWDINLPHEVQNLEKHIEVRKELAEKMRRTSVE

[5] = tested on: human cortical neurons; test: AlamarBlue cytotoxicity assay in primary human cortical neurons; format: cell-based; details: for Concentration at which overt cytotoxicity was seen: human cortical neurons
[6] = biological target: mouse LRRK2 (mouse kidney lysate) (Mus musculus, UniProt Q5S006); test: Competition-binding assay with la-S7 matrix; details: concentrations as high as 100 μM tested; 5 mg/mL protein
Sequence of mouse LRRK2 (mouse kidney lysate) (Q5S006 1879-2146 limits assumed): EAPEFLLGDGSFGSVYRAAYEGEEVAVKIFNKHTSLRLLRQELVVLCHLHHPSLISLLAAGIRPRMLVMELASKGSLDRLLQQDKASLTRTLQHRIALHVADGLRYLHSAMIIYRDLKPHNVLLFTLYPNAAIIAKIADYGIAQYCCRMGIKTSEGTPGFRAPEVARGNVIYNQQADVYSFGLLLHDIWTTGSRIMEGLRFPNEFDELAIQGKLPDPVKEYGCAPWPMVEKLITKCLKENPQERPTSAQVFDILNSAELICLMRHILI

[7] = biological target: LRRK2 (human K562 extracts) (Homo sapiens, UniProt Q5S007); test: la-S7 binding assay in human K562 extracts; details: concentrations as high as 100 μM tested; 5 mg/mL protein
Sequence of LRRK2 (human K562 extracts) (Q5S007 whole entry): as the sequence (Q5S007 whole entry) above

[8] = tested on: rat primary cortical neurons transfected with LRRK2 G2019S; format: cell-based
[9] = tested on: rat primary cortical neurons transfected with LRRK2 R1441C; format: cell-based; details: at higher concentrations

Sequence of G2019S LRRK2 (Q5S007 whole entry G2019S): as the sequence (Q5S007 whole entry) above, with G2019S counted along it

Question: For `COc1cc(N2CCOCC2)ccc1Nc1ncc(Cl)c(Nc2ccccc2NS(C)(=O)=O)n1` [CZC-54252], which IC50 [1] is on record?
Answer: Its IC50 is 1.85 nM.

Question: And the Brain penetration [2]?
Answer: The Brain penetration was ~ 4%.

Question: And the “Concentration fully reversing G2019S LRRK2-induced injury to wild-type levels” value [3]?
Answer: Its value is 1.6 nM.

Question: What about the EC50 [3] of the same compound?
Answer: The EC50 was about 1 nM.

Question: What about the IC50 [4] of the same compound?
Answer: Its IC50 is 1.28 nM.

Question: What about the “Concentration at which overt cytotoxicity was seen” value [5] of the same compound?
Answer: Its value is at least 1000 nM.

Question: Which “IC50 in la-S7 binding assay, mouse kidney extracts” value [6] does the source give for `O=C1Nc2ccc(I)cc2/C1=C/c1cc(Br)c(O)c(Br)c1` [GW-5074] here?
Answer: Its value is “no valid IC50s”.

Question: And the “IC50 in la-S7 binding assay, human K562 extracts” value [7]?
Answer: The value was “no valid IC50s”.

Question: For `COc1cc(N2CCOCC2)ccc1Nc1ncc(F)c(Nc2ccccc2NS(C)(=O)=O)n1` [CZC-25146], which IC50 [1] is on record?
Answer: Its IC50 is 6.87 nM.

Question: And the Brain penetration [2]?
Answer: The Brain penetration was ~ 4%.

Question: And the Clearance [2]?
Answer: Its Clearance is 38.3 mL/min/kg.

Question: And the Volume of distribution [2]?
Answer: Its Volume of distribution is 5.4 L/kg.

Question: And the “Concentration fully reversing G2019S LRRK2-induced injury to wild-type levels” value [3]?
Answer: The value was 8 nM.

Question: And the EC50 [3]?
Answer: Its EC50 is about 4 nM.

Question: What about the IC50 [4] of the same compound?
Answer: The IC50 was 4.76 nM.

Question: And the “Block of G2019S LRRK2-induced toxicity” value ([8]; at higher concentrations)?
Answer: Its value is “completely blocked”.

Question: What about the EC50 ([8]; read-out: EC50, attenuation of G2019S LRRK2-induced neuronal injury and death, primary rodent cortical neurons) of the same compound?
Answer: Its EC50 is about 100 nM.

Question: And the “Block of R1441C-induced toxicity” value [9]?
Answer: Its value is “completely blocked”.

Question: And the “Concentration at which overt cytotoxicity was seen” value [5]?
Answer: The value was 5000 nM.

Question: And the “Concentrations at which no cytotoxicity was caused” value ([5]; seven-day treatment in culture)?
Answer: Its value is “below 5 μM”.

— PMC3688284 (ACS chemical biology, 2011)
